Consider one compound from PMC11870037 (Molecules, 2024).

Series [1] is described as follows: Acute toxicity, up-and-down procedure. The settings on record: female, rat, in vivo; females, F344 rats, oral. The procedure:
The hERG potassium channel blocking potential was evaluated using the whole-cell patch clamp method with hERG channels expressed in HEK 293 cells as the biological material. The Axopatch 200B amplifier and Digidata 1440A converter from Molecular Devices were integral to the setup. Electrodes crafted from borosilicate glass with filament by Sutter Instrument Company were used for recordings.
Command pulse protocols for voltage clamping and data acquisition were managed by pCLAMP […]
The bath solution contained 137 mM NaCl, 5.4 mM KCl, 10 mM glucose, 10 mM HEPES, and 2 mM CaCl2, with pH adjusted to 7.5 by NaOH. The pipet solution was composed of 140 mM KCl, 1 mM MgCl2, 5 mM EGTA, 10 mM HEPES, and 5 mM Na2ATP, with pH adjusted to 7.2 using KOH. The compound 11b was dissolved in a 50% (w/v) DMSO solution at an initial concentration of 1 mM and diluted to the test concentration with the bath solution. […]
number of surviving animals was recorded after 24 h of drug administration, and the percent mortality in each group was calculated. The LD50 values were calculated by using the soft AOT425statpgm […]
group containing 16 mice. […] The duration of immobility during the last 4 minutes of a total time of 6 minutes was recorded, and animals were judged to be immobile when they floated motionless, making only necessary movements to keep their heads above the water. […]

A further series concerns the target Dopamine transporter (Rattus norvegicus, UniProt P23977). Briefly: Dopamine transporter binding ([3H]-WIN35,428). The settings on record: rat striatum; read-out: Ki DAT.
The next series has as its target Dopamine D1 receptor (Rattus norvegicus, UniProt P18901). Briefly: Dopamine D1 receptor binding ([3H]-SCH23390). As to conditions: rat striatum.
A further series deals with T1, Dopamine D3 receptor (Rattus norvegicus, UniProt P19020).
T1 construct: A rat olfactory tubercle was homogenized in 20 volumes of ice; from tissue; host or cells: rat olfactory tubercle membranes
Briefly: Dopamine D3 receptor binding ([3H]7-OH-DPAT). As to conditions: rat olfactory tubercle.

The target of series [2] is T2, Serotonin 5-HT2A receptor (Rattus norvegicus, UniProt P14842).
T2 construct: The cerebral cortex of a rat was finely homogenized using an ULTRA TURAX; from tissue; host or cells: rat cerebral cortex membranes
Nature of the series: Serotonin 5-HT2A receptor binding ([3H]ketanserin). As to conditions: rat brain cortex.

For series [3], the target named is T3, Serotonin 5-HT2C receptor (Rattus norvegicus, UniProt P08909).
T3 construct: The cerebral cortex of a rat was processed by homogenization; from tissue; host or cells: rat cerebral cortex membranes
Briefly: Serotonin 5-HT2C receptor binding ([3H]mesulergine). As to conditions: rat brain cortex.

Series [4] concerns the target T4, M3 muscarinic cholinergic receptor (Homo sapiens, UniProt P20309).
T4 construct: blood lymphocytes were used at a concentration of 1 × 10⁶ cells; endogenous in cells; host or cells: peripheral blood lymphocytes
Nature of the series: Muscarinic M3 receptor binding (lymphocyte suspension). The settings on record: lymphocyte suspension and sections. The procedure:
Antagonist potency was determined according to literature, by measuring inhibition of RAMH-induced [35S]GTPγS binding in recombinant hH3R membranes as previously. The […]
Inverse agonist potency was conducted by measuring inhibition of basal [35S]GTPγS binding in recombinant hH3 Rmembranes. Test compound or vehicle was added to the wells, followed by [35S]GTPγS to a final concentration of 0.2 nM. Nonspecific binding was determined in the presence of 10 μM unlabeled GTPγS. The control agonist signal was determined in wells containing vehicle in place of the test compound, and the basal signal was determined in wells containing vehicle in place of both diluted compound and the RAMH […]
3. Selectivity of Compound 11b for Additional Receptors […]
transporter, 3[H]-WIN35,428, rat striatum; (2) Dopamine D1 receptor, 3[H]-SCH23390, rat striatum; (3) Dopamine D2 receptor, [3H]spiperone, rat striatum; (4) Dopamine D3 receptor, [3H] 7-OH-DPAT, rat olfactory tubercle; (5) Serotonin 5-HT2A receptor, [3H]Ketanserin, rat brain cortex;
(6) Serotonin 5-HT2C receptor, [3H]mesulergine, rat brain cortex; (7) Adrenergic α2 receptor, [3H]- rauwolscine, rat cerebral cortex; (8) Histamine H2 receptor, [3H]tiotidine, Sf9 cells and […]

The target in the next series is NMDA receptor (Rattus norvegicus, UniProt P35439). Briefly: NMDA receptor binding. As to conditions: read-out: Ki NDMA.

Where only a bound is given, the exact number is not on record here.

The term LD50 denotes the dose expected to kill half of the subjects tested. What is called Ki is a dissociation constant, usually derived from enzyme kinetics or from competition with a known ligand.

T1 sequence (P19020 whole entry): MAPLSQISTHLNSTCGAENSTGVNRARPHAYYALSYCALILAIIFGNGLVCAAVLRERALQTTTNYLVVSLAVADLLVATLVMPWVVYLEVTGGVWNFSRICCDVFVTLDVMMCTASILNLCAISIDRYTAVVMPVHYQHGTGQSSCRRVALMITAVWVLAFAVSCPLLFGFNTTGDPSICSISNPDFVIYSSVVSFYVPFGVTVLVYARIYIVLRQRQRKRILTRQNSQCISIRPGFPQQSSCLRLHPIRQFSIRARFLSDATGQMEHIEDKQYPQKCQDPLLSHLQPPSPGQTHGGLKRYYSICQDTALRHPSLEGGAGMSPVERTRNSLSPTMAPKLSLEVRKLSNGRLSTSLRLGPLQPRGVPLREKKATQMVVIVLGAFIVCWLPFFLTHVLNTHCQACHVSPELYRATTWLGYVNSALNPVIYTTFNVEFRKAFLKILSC
Dopamine transporter, sequence (P23977 whole entry): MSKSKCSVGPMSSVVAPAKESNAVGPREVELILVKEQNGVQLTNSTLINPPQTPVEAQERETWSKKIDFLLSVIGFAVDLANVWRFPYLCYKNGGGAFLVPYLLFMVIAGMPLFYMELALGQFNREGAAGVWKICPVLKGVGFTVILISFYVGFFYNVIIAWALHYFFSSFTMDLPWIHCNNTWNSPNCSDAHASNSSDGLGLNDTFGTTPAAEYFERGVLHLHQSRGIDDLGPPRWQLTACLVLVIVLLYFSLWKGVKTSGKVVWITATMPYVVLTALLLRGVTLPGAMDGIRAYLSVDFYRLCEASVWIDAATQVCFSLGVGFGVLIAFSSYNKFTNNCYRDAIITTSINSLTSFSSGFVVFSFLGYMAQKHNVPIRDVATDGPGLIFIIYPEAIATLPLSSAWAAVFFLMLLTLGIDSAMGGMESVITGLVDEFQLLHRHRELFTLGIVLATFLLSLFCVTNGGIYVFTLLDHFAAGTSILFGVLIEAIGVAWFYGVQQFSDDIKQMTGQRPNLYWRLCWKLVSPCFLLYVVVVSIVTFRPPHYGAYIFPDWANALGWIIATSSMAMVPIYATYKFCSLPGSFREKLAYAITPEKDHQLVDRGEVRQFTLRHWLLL
T3 sequence (P08909 33-460): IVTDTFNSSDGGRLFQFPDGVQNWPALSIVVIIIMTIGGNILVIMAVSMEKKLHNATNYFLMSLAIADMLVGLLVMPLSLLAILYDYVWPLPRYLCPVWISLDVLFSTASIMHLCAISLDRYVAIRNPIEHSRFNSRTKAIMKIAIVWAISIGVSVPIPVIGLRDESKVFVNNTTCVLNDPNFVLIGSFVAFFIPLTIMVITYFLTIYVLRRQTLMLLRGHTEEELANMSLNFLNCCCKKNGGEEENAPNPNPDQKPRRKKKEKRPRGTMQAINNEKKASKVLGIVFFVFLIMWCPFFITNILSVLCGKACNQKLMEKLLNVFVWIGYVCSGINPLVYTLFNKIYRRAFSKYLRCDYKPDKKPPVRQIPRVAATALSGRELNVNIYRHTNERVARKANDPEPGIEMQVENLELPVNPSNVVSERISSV
T4 sequence (P20309 whole entry): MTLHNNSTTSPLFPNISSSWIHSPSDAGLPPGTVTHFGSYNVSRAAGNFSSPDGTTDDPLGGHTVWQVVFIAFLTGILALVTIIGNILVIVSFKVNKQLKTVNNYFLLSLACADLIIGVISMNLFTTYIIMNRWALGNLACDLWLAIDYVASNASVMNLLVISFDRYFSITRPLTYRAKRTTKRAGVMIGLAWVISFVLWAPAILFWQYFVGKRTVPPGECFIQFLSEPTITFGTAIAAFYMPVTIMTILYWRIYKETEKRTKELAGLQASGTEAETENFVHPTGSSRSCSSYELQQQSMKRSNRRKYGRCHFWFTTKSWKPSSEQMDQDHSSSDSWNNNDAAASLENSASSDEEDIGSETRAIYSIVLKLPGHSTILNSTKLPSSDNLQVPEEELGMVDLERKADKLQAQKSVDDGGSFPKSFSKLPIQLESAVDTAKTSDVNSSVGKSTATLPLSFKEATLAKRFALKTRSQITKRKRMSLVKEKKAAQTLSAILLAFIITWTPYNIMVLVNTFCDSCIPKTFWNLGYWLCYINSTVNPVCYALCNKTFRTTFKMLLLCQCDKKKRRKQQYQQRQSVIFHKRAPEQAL
T2 sequence (P14842 whole entry): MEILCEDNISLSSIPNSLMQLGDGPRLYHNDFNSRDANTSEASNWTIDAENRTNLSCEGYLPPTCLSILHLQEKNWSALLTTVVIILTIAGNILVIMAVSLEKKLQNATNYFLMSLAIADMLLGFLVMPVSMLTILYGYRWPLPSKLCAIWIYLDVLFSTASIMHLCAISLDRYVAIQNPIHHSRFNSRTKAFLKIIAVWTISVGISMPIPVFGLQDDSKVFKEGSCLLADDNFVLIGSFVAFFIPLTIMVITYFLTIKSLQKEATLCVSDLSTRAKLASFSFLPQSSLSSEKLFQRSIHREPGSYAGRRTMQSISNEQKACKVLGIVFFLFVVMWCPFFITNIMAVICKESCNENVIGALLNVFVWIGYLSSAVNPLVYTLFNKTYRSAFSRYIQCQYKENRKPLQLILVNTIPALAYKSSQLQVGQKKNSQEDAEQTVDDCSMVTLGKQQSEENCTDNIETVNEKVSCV
Dopamine D1 receptor, sequence (P18901 whole entry): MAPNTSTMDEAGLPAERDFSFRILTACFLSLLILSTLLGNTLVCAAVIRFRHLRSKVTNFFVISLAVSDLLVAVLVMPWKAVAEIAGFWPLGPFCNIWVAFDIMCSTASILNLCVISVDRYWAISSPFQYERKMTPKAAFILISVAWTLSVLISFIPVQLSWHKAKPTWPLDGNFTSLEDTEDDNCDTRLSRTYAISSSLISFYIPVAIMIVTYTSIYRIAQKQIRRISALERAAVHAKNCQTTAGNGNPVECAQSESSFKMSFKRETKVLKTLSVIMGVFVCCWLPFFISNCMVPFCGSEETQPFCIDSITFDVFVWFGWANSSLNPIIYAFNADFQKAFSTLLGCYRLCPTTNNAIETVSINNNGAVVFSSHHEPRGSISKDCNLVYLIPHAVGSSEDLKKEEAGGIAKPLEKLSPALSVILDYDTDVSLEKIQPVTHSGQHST

Regarding `CN(C)CCC(Oc1cccc2c1OCO2)c1ccc(OCCCN2CCCCC2)cc1.O=C(O)C(=O)O` (centres unmarked) [Compound 11b, 3-(benzo[d][1,3]dioxol-4-yloxy)-N,N-dimethyl-3-(4-(3-(piperidin-1-yl)propoxy)phenyl)propan-1-amine oxalate], in series [1], the LD50 at 24 h was 512 mg/kg. The inhibitory constant (Ki) on Dopamine transporter was over 1000 nM; on Dopamine D1 receptor, over 1000 nM; at Dopamine D3 receptor, over 1000 nM; in series [2], 320 nM; in series [3] it was over 1000 nM; in series [4], over 1000 nM. In addition, the inhibition constant Ki on NMDA receptor is over 1000 nM.
